Experimental data as given in patent publication US10300071B2, “Compositions and methods for inhibition of mycobacteria” (priority 2014, dated 2019).
Values after ≈ are worked out from the molar mass of the structure shown. Read-outs that look alike come from different tables or passages of the source.

Tests used:
[1] = test system: Mtb strain mc^2-7000; assay: microbe, parasite or virus in culture; type: cell-based, Mycobacterium tuberculosis; settings: 6 days incubation at 37° C., resazurin, read on the 7th day
[2] = test system: S. cerevisiae
[3] = Pharmacokinetic studies in mice, plasma concentration after gavage (LC/MS); settings: for peak plasma concentration, 30 minutes after gavage / peak plasma concentration, 90 minutes after gavage: 100 mg/kg gavage, PEG or canola oil; for Plasma conc. 24 Hrs. after 1st dose / Plasma conc. 24 Hrs. after last dose: oral, 1 dose/day x 4 days, NZ-331 200 mg/kg, NZ-332 and NZ-369 100 mg/kg; for peak plasma concentration (FIG. 6A): two doses 200 mg/kg 8 h apart, approx. 12 hours after first dose, 4 hours after second
[4] = biological target: Mtb AccD6 (Mycobacterium tuberculosis, UniProt P9WQH5); assay: biochemical; type: biochemical; settings: 300 μM malonyl-CoA, inhibitor 10 μM to 2000 μM
[5] = test system: human fibroblast
[6] = Mycobacterium tuberculosis, 144 h, read-out: MIC

Mtb AccD6, sequence (P9WQH5 whole entry, looked up): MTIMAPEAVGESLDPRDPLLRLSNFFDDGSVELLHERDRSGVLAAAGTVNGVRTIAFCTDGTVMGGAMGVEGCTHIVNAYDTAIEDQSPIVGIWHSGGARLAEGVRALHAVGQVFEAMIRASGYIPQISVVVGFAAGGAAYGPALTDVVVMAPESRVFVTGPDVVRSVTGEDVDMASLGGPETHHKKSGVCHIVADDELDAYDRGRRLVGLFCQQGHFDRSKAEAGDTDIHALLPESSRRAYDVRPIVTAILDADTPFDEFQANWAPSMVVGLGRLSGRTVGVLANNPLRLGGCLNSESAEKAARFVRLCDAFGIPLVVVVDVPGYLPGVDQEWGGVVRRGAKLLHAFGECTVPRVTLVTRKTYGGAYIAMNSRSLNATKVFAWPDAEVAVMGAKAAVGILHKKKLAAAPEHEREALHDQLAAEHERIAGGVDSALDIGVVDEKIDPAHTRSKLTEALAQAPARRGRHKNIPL

Structure (SMILES) | MIC [1, 6] | concentrations at which not toxic, s. cerevisiae cytotoxicity [2] | IC50 ([4]; read-out: IC50) | concentrations at which not toxic, human fibroblast cytotoxicity [5] | further results
CC(C)NC(=O)Nc1ccc(Oc2nc3ccc(F)cc3s2)cc1 [NZ-332, 1-{4-[(6-fluoro-1,3-benzothiazol-2-yl)oxy]phenyl}-3-(propan-2-yl)urea] | 0.8 µM (≈ 0.276 µg/mL) | ≥ 100 µM | 0.65 µM | ≥ 100 µM | peak plasma concentration, 30 minutes after gavage [3]: approximately 9 μL/mg; peak plasma concentration, 90 minutes after gavage [3]: 13; Plasma conc. 24 Hrs. after 1st dose ([3]; canola oil): 2.2 (±0.6) μg/ml; Plasma conc. 24 Hrs. after last dose ([3]; canola oil): 1.8 (±0.2) μg/ml; peak plasma concentration (FIG. 6A) ([3]; canola oil, gavage): approximately 34 μL/mg
CC(C)NC(=O)Nc1ccc(Oc2nc3ccc(Cl)cc3s2)cc1 [NZ-331, 1-{4-[(6-chloro-1,3-benzothiazol-2-yl)oxy]phenyl}-3-(propan-2-yl)urea] | 0.8 µM (≈ 0.289 µg/mL) | ≥ 100 µM | 0.8 µM | ≥ 100 µM | peak plasma concentration, 30 minutes after gavage [3]: approximately 6 μL/mg; peak plasma concentration, 90 minutes after gavage [3]: 9; Plasma conc. 24 Hrs. after 1st dose ([3]; canola oil): 17.7 (±2.7) μg/ml; Plasma conc. 24 Hrs. after last dose ([3]; canola oil): 27.1 (±13.7) μg/ml; peak plasma concentration (FIG. 6A) ([3]; canola oil, gavage): approximately 23 μL/mg; peak plasma concentration (FIG. 11), 24 hours ([3]; two doses 200 mg/kg 8 hours apart, canola oil, 24 hours after gavage): 34.5; corrected peak plasma concentration (FIG. 6B) ([3]; two doses 200 mg/kg, canola oil, gavage, approx. 24 hours after first dose, 16 hours after second): approximately 138 μL/mg
CONC(=O)C(C)c1ccc(Oc2nc3ccc(Cl)cc3s2)cc1 (racemic) [NZ-313, 2-{4-[(6-chloro-1,3-benzothiazol-2-yl)oxy]phenyl}-N-methoxypropanamide] | 0.38 µM (≈ 0.138 µg/mL) | ≥ 100 µM | 0.32 µM | ≥ 100 µM | peak plasma concentration (FIG. 8) ([3]; single dose 200 mg/kg, PEG, gavage, 90 minutes after gavage): 1; peak plasma concentration (FIG. 7) ([3]; two doses 100 mg/kg 4 hours apart, canola oil, gavage, 30 minutes after gavage): approximately 0.69 μL/mg
CC(C(=O)N1CCOCC1)c1ccc(Oc2nc3ccc(Cl)cc3s2)cc1 (stereo not drawn) [NZ-365, 2-{4-[(6-chloro-1,3-benzothiazol-2-yl)oxy]phenyl}-1-(morpholin-4-yl)propan-1-one] | 18.9 µM (≈ 7.61 µg/mL) | 50 to 100 µM | 6.2 µM | ≥ 100 µM | 
CNC(=O)Cc1ccc(Oc2nc3ccc(Cl)cc3s2)cc1OC [NZ-392, 2-{4-[(6-chloro-1,3-benzothiazol-2-yl)oxy]-2-methoxyphenyl}-N-methylacetamide] | 7.28 µM (≈ 2.64 µg/mL) | ≥ 100 µM | 7.18 µM | ≥ 100 µM | 
COC(=O)Cn1ccc(Oc2nc3ccc(Cl)cc3s2)cc1=O [NZ-396, methyl 2-{4-[(6-chloro-1,3-benzothiazol-2-yl)oxy]-2-oxo-1,2-dihydropyridin-1-yl}acetate] | 6.19 to 8.6 µM | ≥ 100 µM | 11.3 µM | ≥ 100 µM | 
COC(=O)Cc1ccc(Oc2nc3cc(F)c(F)cc3s2)cc1 [NZ-398, methyl 2-{4-[(5,6-difluoro-1,3-benzothiazol-2-yl)oxy]phenyl}acetate] | 0.89 µM | ≥ 100 µM | 3.6 µM | ≥ 100 µM | 
COC(=O)C(C)c1ccc(Oc2nc3ccc(F)cc3s2)cc1 (stereo not drawn) [NZ-328, methyl 2-{4-[(6-fluoro-1,3-benzothiazol-2-yl)oxy]phenyl}propanoate] | 12 µM (≈ 3.98 µg/mL) | ≥ 100 µM | 10 µM | ≥ 100 µM | 
O=C(COc1ccc(Oc2cnc3cc(Cl)ccc3n2)cc1)NOCC1CC1 [NZ-323, 2-{4-[(6-chloroquinoxalin-2-yl)oxy]phenoxy}-N-(cyclopropylmethoxy)acetamide] | 6 µM (≈ 2.4 µg/mL) | ≥ 100 µM | 3.6 µM | ≥ 100 µM | 
CNC(=O)C(C)c1ccc(Oc2nc3cc(F)c(F)cc3s2)cc1 (stereo not drawn) [NZ-387, 2-{4-[(5,6-difluoro-1,3-benzothiazol-2-yl)oxy]phenyl}-N-methylpropanamide] | 2.7 to 8 µM (≈ 0.941 to 2.79 µg/mL) | ≥ 100 µM | 0.26 µM | ≥ 100 µM | 
CNC(=O)Cc1ccc(Oc2nc3ccc(Cl)cc3s2)cc1 [NZ-383, 2-{4-[(6-chloro-1,3-benzothiazol-2-yl)oxy]phenyl}-N-methylacetamide] | 3.9 µM (≈ 1.3 µg/mL) | ≥ 100 µM | 0.8 to 1.17 µM | ≥ 100 µM | 
COC(=O)C(C)(C)Oc1ccc(Oc2cnc3cc(Cl)ccc3n2)cc1 [NZ-314, methyl 2-{4-[(6-chloroquinoxalin-2-yl)oxy]phenoxy}-2-methylpropanoate] | 6 µM (≈ 2.24 µg/mL) | ≥ 100 µM | 17.5 µM | ≥ 100 µM | 
COC(=O)C(C)c1ccc(Oc2cnc3cc(Cl)ccc3n2)cc1 (stereo not drawn) [NZ-308, methyl 2-{4-[(6-chloroquinoxalin-2-yl)oxy]phenyl}propanoate] | 4.5 µM (≈ 1.54 µg/mL) | ≥ 100 µM | 8 µM | ≥ 100 µM | 
CC(C)NC(=O)Nc1ccc(Oc2nc3cc(F)ccc3s2)cc1 [NZ-373, 1-{4-[(5-fluoro-1,3-benzothiazol-2-yl)oxy]phenyl}-3-(propan-2-yl)urea] |  | ≥ 100 µM | 1.66 µM | ≥ 100 µM | MIC [1]: Not Active
CC(C)NC(=O)Nc1ccc(Oc2nc3ccc(Cl)cc3s2)c[n+]1[O-] [NZ-391, 1-{5-[(6-chloro-1,3-benzothiazol-2-yl)oxy]-1-oxo-1λ^5-pyridin-2-yl}-3-(propan-2-yl)urea] |  | ≥ 100 µM |  | ≥ 100 µM | MIC [1]: Not Active; IC50 [4]: Not Active
CNC(=O)Cc1ccc(Oc2nc3ccc(F)cc3s2)cc1 [NZ-385, 2-{4-[(6-fluoro-1,3-benzothiazol-2-yl)oxy]phenyl}-N-methylacetamide] | 3 µM (≈ 0.949 µg/mL) | ≥ 100 µM | 0.87 µM | ≥ 100 µM | 
CC(C)NC(=O)Nc1ccc(Oc2nc3ccc(C(F)(F)F)cc3s2)cc1 [NZ-379, 3-(propan-2-yl)-1-(4-{[6-(trifluoromethyl)-1,3-benzothiazol-2-yl]oxy}phenyl)urea] |  | ≥ 100 µM |  | ≥ 100 µM | MIC [1]: Not Active; IC50 [4]: Not Active
CONC(=O)Cc1ccc(Oc2nc3ccc(F)cc3s2)cc1 [NZ-300, 2-{4-[(6-fluoro-1,3-benzothiazol-2-yl)oxy]phenyl}-N-methoxyacetamide] | 7.5 µM (≈ 2.49 µg/mL) | ≥ 100 µM | 0.82 µM | ≥ 100 µM | 
CONC(=O)Cc1ccc(Oc2cnc3cc(Cl)ccc3n2)cc1 [NZ-301, 2-{4-[(6-chloroquinoxalin-2-yl)oxy]phenyl}-N-methoxyacetamide] | 12 µM (≈ 4.13 µg/mL) | ≥ 100 µM | 0.265 µM | ≥ 100 µM | 
